Source: patent US11453666B2, “Autotaxin inhibitory compounds” (Cancer Research Technology Limited, priority 2015, dated 2022)

Target: human recombinant ATX (Homo sapiens, UniProt Q13822)
Test: Autotaxin (ATX) activity Quanta Red assay
Assay type: biochemical
Details: Table 2: additional compounds tested for ATX activity (Quanta Red Assay); read-out: Activity
Description: The reaction was stopped after 2 hours with a 20 μL addition of Quanta Red Stop solution (1:20 dilution in distilled water). The above-described mixture with DMSO alone was used as a positive control whereas that with DMSO alone without ATX was taken as a negative control.
Fluorescence was determined in a BMG Labtech Pherastar plus plate reader ([…]). Data were analysed using Excel fit software. IC50 values were determined in duplicate.

| IC50 [nM] | SMILES |
| --- | --- |
| 688 | CSc1ccc(CCNC(=O)CCc2nc3cccnc3n2Cc2ccccc2)cc1 [Example 230, 3-(3-Benzyl-3H-imidazo[4,5-b]pyridin-2-yl)-N-[2-(4-methylsulfanyl-phenyl)-ethyl]-propionamide] |
| 3830 | COc1ccc(Cn2c(CCC(=O)Nc3ccc(F)cc3)nc3cccnc32)cc1 [Example 227, N-(4-Fluoro-phenyl)-3-[3-(4-methoxy-benzyl)-3H-imidazo[4,5-b]pyridin-2-yl]-propionamide] |

Same assay, conditions: human recombinant ATX 0.8 μg/mL, 2 hours at room temperature, IC50 determined in duplicate; read-out: Activity (ATX activity, Quanta Red assay; IC50)

| IC50 [nM] | SMILES |
| --- | --- |
| 10 | C[C@H](NC(=O)NCc1nc2cccnc2n1Cc1ccc(F)cc1)c1ccc(Cl)cc1 [Example 157, 1-[(S)-1-(4-Chloro-phenyl)-ethyl]-3-[3-(4-fluoro-benzyl)-3H-imidazo[4,5-b]pyridin-2-ylmethyl]-urea] |
| 3 | C[C@H](NC(=O)CCc1nc2ccncc2n1Cc1ccc(OC(F)(F)F)cc1)c1ccc(Cl)cc1 [Example 122, N—[(S)-1-(4-chloro-phenyl)-ethyl]-3-[3-(4-trifluoromethoxy-benzyl)-3H-imidazo[4,5-c]pyridin-2-yl]-propionamide] |

Same assay, conditions: read-out: Activity (ATX activity, Quanta Red assay; IC50)

| IC50 [nM] | SMILES |
| --- | --- |
| 209 | O=C(NCc1nc2cccnc2n1Cc1ccc(F)c(F)c1)N[C@@H](CO)c1ccccc1 [Example 162, 1-[3-(3,4-difluoro-benzyl)-3H-imidazo[4,5-b]pyridin-2-ylmethyl]-3-((R)-2-hydroxy-1-phenyl-ethyl)-urea] |
| 5 | O=C(CCc1nc2cccnc2n1Cc1ccc(OC(F)F)cc1)N[C@H](Cc1ccccc1)C(=O)O [Example 197, (R)-2-{3-[3-(4-Difluoromethoxy-benzyl)-3H-imidazo[4,5-b]pyridin-2-yl]-propionylamino}-3-phenyl-propionic acid] |
| 102 | COc1ccc(Cn2c(CCC(=O)NCc3ccc(F)c(F)c3)nc3cccnc32)cc1 [Example 107, N-(3,4-Difluoro-benzyl)-3-[3-(4-methoxy-benzyl)-3H-imidazo[4,5-b]pyridin-2-yl]-propionamide] |
| 7 | O=C(CCc1nc2cccnc2n1Cc1ccc(OC(F)(F)F)cc1)NC[C@@H](O)c1ccccc1 [Example 36, N-((S)-2-Hydroxy-2-phenyl-ethyl)-3-[3-(4-trifluoromethoxy-benzyl)-3H-imidazo[4,5-b]pyridin-2-yl]-propionamide] |
| 9 | C[C@H](NC(=O)CCc1nc2ccncc2n1Cc1ccc(OC(F)(F)F)cc1)c1ccc(N2CCN(C)CC2)cc1 [Example 125, N-{(S)-1-[4-(4-Methyl-piperazin-1-yl)-phenyl]-ethyl}-3-[3-(4-trifluoromethoxy-benzyl)-3H-imidazo[4,5-c]pyridin-2-yl]-propionamide] |
| 2 | O=C(CCc1nc2cccnc2n1Cc1ccc(OC(F)(F)F)cc1)N[C@@H](CO)Cc1ccccc1 [Example 203, N—((R)-1-Hydroxymethyl-2-phenyl-ethyl)-3-[3-(4-trifluoromethoxy-benzyl)-3H-imidazo[4,5-b]pyridin-2-yl]-propionamide] |
| 185 | COc1ccc(CNC(=O)CCc2nc3cc(C)cnc3n2Cc2ccc(F)cc2)cc1 [Example 109, 3-[3-(4-Fluoro-benzyl)-6-methyl-3H-imidazo[4,5-b]pyridin-2-yl]-N-(4-methoxy-benzyl)-propionamide] |
| 7 | O=C(CCc1nc2cccnc2n1Cc1ccc(OC(F)(F)F)cc1)NC[C@H](O)c1ccccc1 [Example 37, N-((R)-2-Hydroxy-2-phenyl-ethyl)-3-[3-(4-trifluoromethoxy-benzyl)-3H-imidazo[4,5-b]pyridin-2-yl]-propionamide] |
| 2 | C[C@@H]1CN(c2ccc([C@H](C)NC(=O)CCc3nc4cccnc4n3Cc3ccc(OC(F)(F)F)cc3)cc2)C[C@H](C)N1 [Example 171, N-{(S)-1-[4-((cis)-3,5-Dimethyl-piperazin-1-yl)-phenyl]-ethyl}-3-[3-(4-trifluoromethoxy-benzyl)-3H-imidazo[4,5-b]pyridin-2-yl]-propionamide] |
| 30 | CS(=O)(=O)N1CCC(CNC(=O)CCc2nc3cccnc3n2Cc2ccc(OC(F)(F)F)cc2)CC1 [Example 214, N-(1-methanesulfonyl-piperidin-4-ylmethyl)-3-[3-(4-trifluoromethoxy-benzyl)-3H-imidazo[4,5-b]pyridin-2-yl]-propionamide] |
| 19 | O=C(CCc1nc2cccnc2n1Cc1ccc(F)c(F)c1)NC(CCO)c1ccc(F)cc1 (stereo not drawn) [Example 48, 3-[3-(3,4-Difluoro-benzyl)-3H-imidazo[4,5-b]pyridin-2-yl]-N-[1-(4-fluoro-phenyl)-3-hydroxy-propyl]-propionamide] |
| 4 | O=C(CCc1nc2cccnc2n1Cc1ccc(OC(F)(F)F)cc1)NC(CO)c1ccc(C(F)(F)F)cc1 (stereo not drawn) [Example 23, N-[2-Hydroxy-1-(4-trifluoromethyl-phenyl)-ethyl]-3-[3-(4-trifluoromethoxy-benzyl)-3H-imidazo[4,5-b]pyridin-2-yl]-propionamide] |
| 254 | C[C@H](NC(=O)CCc1nc2cccnc2n1Cc1ccc(O)cc1)c1ccc(F)cc1 [Example 155, N—[(S)-1-(4-fluoro-phenyl)-ethyl]-3-[3-(4-hydroxy-benzyl)-3H-imidazo[4,5-b]pyridin-2-yl]-propionamide] |
| 714 | Cc1csc(NC(=O)CCc2nc3cccnc3n2Cc2ccc(OC(F)(F)F)cc2)n1 [Example 77, N-(4-Methyl-thiazol-2-yl)-3-[3-(4-trifluoromethoxy-benzyl)-3H-imidazo[4,5-b]pyridin-2-yl]-propionamide] |
| 242 | C[C@H](NC(=O)CCc1nc2cc(Br)cnc2n1Cc1ccc(F)cc1)c1ccc(Cl)cc1 [Example 70, 3-[6-Bromo-3-(4-fluoro-benzyl)-3H-imidazo[4,5-b]pyridin-2-yl]-N-[(S)-1-(4-chloro-propionimide)]] |
| 2 | C[C@H](NC(=O)CCc1nc2cccnc2n1Cc1ccc(OC(F)(F)F)cc1)c1ccc(F)cc1 [Example 13, N-[(S)-1-(4-Fluoro-phenyl)-ethyl]-3-[3-(4-trifluoromethoxy-benzyl)-3H-imidazo[4,5-b]pyridin-2-yl]-propionamide] |
| 3 | C[C@H](NC(=O)CCc1nc2cccnc2n1Cc1ccc(F)cc1)c1ccc(N2CCCCCC2)cc1 [Example 178, N-[(S)-1-(4-Azepan-1-yl-phenyl)-ethyl]-3-[3-(4-fluoro-benzyl)-3H-imidazo[4,5-b]pyridin-2-yl]-propionamide] |
| 7 | C[C@H](NC(=O)CCc1nc2cccnc2n1Cc1ccc(F)cc1)c1ccc(N2CCC(CO)CC2)cc1 [Example 181, 3-[3-(4-Fluoro-benzyl)-3H-imidazo[4,5-b]pyridin-2-yl]-N-{(S)-1-[4-(4-hydroxymethyl-piperidin-1-yl)-phenyl]-ethyl}-propionamide] |
| 115 | C[C@H](NC(=O)NCc1nc2cccnc2n1Cc1ccc(F)cc1)c1ccccc1 [Example 161, 1-[3-(4-fluoro-benzyl)-3H-imidazo[4,5-b]pyridin-2-ylmethyl]-3-((S)-1-phenyl-ethyl)-urea] |
| 214 | O=C(CCc1nc2cccnc2n1Cc1ccc(OC(F)(F)F)cc1)Nc1nccs1 [Example 69, N-Thiazol-2-yl-3-[3-(4-trifluoromethoxy-benzyl)-3H-imidazo[4,5-b]pyridin-2-yl]-propionamide] |
| 3 | C[C@H](NC(=O)CCc1nc2cccnc2n1Cc1ccc(OC(F)(F)F)cc1)c1ccc(N[C@H]2CCNC2)cc1 [Example 175, N-{(S)-1-[4-((S)-Pyrrolidin-3-ylamino)-phenyl]-ethyl}-3-[3-(4-trifluoromethoxy-benzyl)-3H-imidazo[4,5-b]pyridin-2-yl]-propionamide] |
| 11 | O=C(CCc1nc2ccncc2n1Cc1ccc(OC(F)(F)F)cc1)NC(CO)c1ccc(OC(F)(F)F)cc1 (stereo not drawn) [Example 126, N-[2-Hydroxy-1-(4-trifluoromethoxy-phenyl)-ethyl]-3-[3-(4-trifluoromethoxy-benzyl)-3H-imidazo[4,5-c]pyridin-2-yl]-propionamide] |
| 11 | CC(NC(=O)CCc1nc2cccnc2n1Cc1ccc(OC(F)(F)F)cc1)C1CCN(C(=O)OC(C)(C)C)CC1 (stereo not drawn) [Example 43, 4-(1-{3-[3-(4-Trifluoromethoxy-benzyl)-3H-imidazo[4,5-b]pyridin-2-yl]-propionylamino}-ethyl)-piperidine-1-carboxylic acid tert-butyl ester] |
| 89 | O=C(CCc1nc2cccnc2n1Cc1ccc(OC(F)(F)F)cc1)N[C@H](CO)Cc1ccccc1 [Example 204, N-((S)-1-Hydroxymethyl-2-phenyl-ethyl)-3-[3-(4-trifluoromethoxy-benzyl)-3H-imidazo[4,5-b]pyridin-2-yl]-propionamide] |
| 987 | O=C(CCc1nc2cccnc2n1Cc1ccc(F)c(F)c1)NCc1ccncc1 [Example 82, 3-[3-(3,4-Difluoro-benzyl)-3H-imidazo[4,5-b]pyridin-2-yl]-N-pyridin-4-ylmethyl-propionamide] |
| 25 | CCN(CC)Cc1ccc([C@H](C)NC(=O)CCc2nc3cccnc3n2Cc2ccc(F)c(F)c2)cc1 [Example 207, N-[(S)-1-(4-Diethylaminomethyl-phenyl)-ethyl]-3-[3-(3,4-difluoro-benzyl)-3H-imidazo[4,5-b]pyridin-2-yl]-propionamide] |
| 247 | C[C@H](NC(=O)CCc1nc2cccnc2n1Cc1ccc(F)c(F)c1)c1ccccn1 [Example 72, 3-[3-(3,4-Difluoro-benzyl)-3H-imidazo[4,5-b]pyridin-2-yl]-N-((S)-1-pyridin-2-yl-ethyl)-propionamide] |
| 40 | COc1ccc(CNC(=O)CCc2nc3cccnc3n2Cc2ccc(F)cc2)cc1 [Example 97, 3-[3-(4-Fluoro-benzyl)-3H-imidazo[4,5-b]pyridin-2-yl]-N-(4-methoxy-benzyl)-propionamide] |

| SMILES | IC50 [nM] |
| --- | --- |
| C[C@H](NC(=O)CCc1nc2cccnc2n1Cc1ccc(F)cc1)c1ccc(F)cc1 [Example 88, 3-[3-(4-Fluoro-benzyl)-3H-imidazo[4,5-b]pyridin-2-yl]-N-[(S)-1-(4-fluoro-phenyl)-ethyl]-propionamide] | 6 |
